Several values for one entry are separate records, joined by “and”; a condition that tells them apart may be missing. Identical values can stand only once. Toxic doses and inconclusive results are not listed. No stated cut-off is given here; in the data, active means T/C of 150% or more; inactive means T/C below 125%.
Tested on: L1210 leukemia ip in BDF1 mice, survival T/C
Test: NCI In Vivo Anticancer Drug Screen. Data for tumor model L1210 Leukemia (intraperitoneal) in B6D2F1 (BDF1) mice
Details: endpoint: mean survival time, higher = longer survival
Summary of the method: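 Ratio derived from survival: compound-dosed mice over vehicle-dosed mice, all bearing a transplantable tumor.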

[1] = dose: 50.0 mg/kg/injection, schedule: Q01DX009 (ip), vehicle: Klucel (hydroxypropylcellulose) (HPC)
[2] = dose: 100.0 mg/kg/injection, schedule: Q01DX009 (ip), vehicle: Klucel (hydroxypropylcellulose) (HPC)
[3] = dose: 100.0 mg/kg/injection, schedule: Q04DX003 (ip), vehicle: Klucel (hydroxypropylcellulose) (HPC)
[4] = dose: 200.0 mg/kg/injection, schedule: Q01DX009 (ip), vehicle: Klucel (hydroxypropylcellulose) (HPC)
[5] = dose: 200.0 mg/kg/injection, schedule: Q04DX003 (ip), vehicle: Klucel (hydroxypropylcellulose) (HPC)
[6] = dose: 100.0 mg/kg/injection, schedule: Q01DX009 (ip), vehicle: saline with Tween-80
[7] = dose: 200.0 mg/kg/injection, schedule: Q01DX009 (ip), vehicle: saline with Tween-80
[8] = dose: 100.0 mg/kg/injection, schedule: Q01DX001 (ip), vehicle: saline with Tween-80
[9] = dose: 400.0 mg/kg/injection, schedule: Q01DX001 (ip), vehicle: saline with Tween-80
[10] = dose: 400.0 mg/kg/injection, schedule: Q04DX003 (ip), vehicle: Klucel (hydroxypropylcellulose) (HPC)

Measured: T/C

Nc1snc2ncccc12
inactive: [1] 97 % of control | [2] 92 % of control | [3] 89 % of control | [4] 103 % of control | [5] 87 % of control

C=C(Br)COCC
inactive: dose: 25.0 mg/kg/injection, schedule: Q01DX009 (ip), vehicle: acetone 97 % of control

CC(O)CSc1ccccc1 (stereo not given)
inactive: [6] 95 % of control | [7] 88 % of control

CC(=O)N(NC(C)C)C(C)C
inactive: dose: 6.25 mg/kg/injection, schedule: Q01DX009 (ip), vehicle: saline 104 % of control | dose: 12.5 mg/kg/injection, schedule: Q01DX009 (ip), vehicle: saline 93 % of control | dose: 25.0 mg/kg/injection, schedule: Q01DX009 (ip), vehicle: saline 94 % of control | dose: 25.0 mg/kg/injection, schedule: Q04DX003 (ip), vehicle: saline 98 % of control | dose: 50.0 mg/kg/injection, schedule: Q01DX009 (ip), vehicle: saline 100 % of control | dose: 50.0 mg/kg/injection, schedule: Q04DX003 (ip), vehicle: saline 98 % of control | dose: 100.0 mg/kg/injection, schedule: Q01DX009 (ip), vehicle: saline 104 % of control | dose: 100.0 mg/kg/injection, schedule: Q04DX003 (ip), vehicle: saline 93 % of control

C(=N/Nc1ccccn1)/c1cccnc1
inactive: [8] 112 % of control

COC(=O)c1cccc2cn3ccc4c5ccccc5nc-4c3cc12
inactive: dose: 25.0 mg/kg/injection, schedule: Q01DX001 (ip), vehicle: saline with Tween-80 98 % of control | dose: 50.0 mg/kg/injection, schedule: Q01DX001 (ip), vehicle: saline with Tween-80 92 % of control | [8] 95 % of control and 92 % of control | [9] 92 % of control

CC1CCC(C(C)C)C(N(C)Cc2cc(Cl)cc(Cl)c2O)C1 (stereo not given)
inactive: [1] 107 % of control | [2] 105 % of control | [3] 104 % of control | [4] 107 % of control | [5] 98 % of control | [10] 101 % of control

O=C(Nc1ccccc1F)N1CCCCC1
inactive: dose: 100.0 mg/kg/injection, schedule: Q01DX009 (ip), vehicle: gum acacia 97 % of control | dose: 200.0 mg/kg/injection, schedule: Q01DX009 (ip), vehicle: gum acacia 97 % of control | dose: 400.0 mg/kg/injection, schedule: Q01DX009 (ip), vehicle: gum acacia 100 % of control

CCCCSP(=O)(SCCCC)c1ccccc1
inactive: dose: 100.0 mg/kg/injection, schedule: Q01DX001 (ip), vehicle: Klucel (hydroxypropylcellulose) (HPC) 100 % of control | dose: 200.0 mg/kg/injection, schedule: Q01DX001 (ip), vehicle: Klucel (hydroxypropylcellulose) (HPC) 102 % of control | dose: 400.0 mg/kg/injection, schedule: Q01DX001 (ip), vehicle: Klucel (hydroxypropylcellulose) (HPC) 95 % of control

CCCCCCCC(C)NCCOC(=O)c1ccc(N)cc1 (stereo not given)
inactive: dose: 75.0 mg/kg/injection, schedule: Q01DX001 (ip), vehicle: other 117 % of control | dose: 150.0 mg/kg/injection, schedule: Q01DX001 (ip), vehicle: other 101 % of control

CC1(C)C2CC=C(CCOC(=O)COc3cc(Cl)c(Cl)cc3Cl)C1C2 (stereo not given)
inactive: dose: 160.0 mg/kg/injection, schedule: Q01DX Z (ip), vehicle: other 105 % of control | dose: 240.0 mg/kg/injection, schedule: Q01DX Z (ip), vehicle: other 109 % of control | dose: 350.0 mg/kg/injection, schedule: Q01DX Z (ip), vehicle: other 88 % of control

N#Cc1cnn2c(=O)[nH]cnc12
inactive: dose: 100.0 mg/kg/injection, schedule: Q01DX009 (ip), vehicle: saline sonified 95 % of control | dose: 100.0 mg/kg/injection, schedule: Q04DX003 (ip), vehicle: saline sonified 93 % of control | dose: 200.0 mg/kg/injection, schedule: Q01DX009 (ip), vehicle: saline sonified 91 % of control | dose: 200.0 mg/kg/injection, schedule: Q04DX003 (ip), vehicle: saline sonified 101 % of control | dose: 400.0 mg/kg/injection, schedule: Q04DX003 (ip), vehicle: saline sonified 95 % of control

CNC(=O)Nc1ccc(OC)cc1
inactive: [2] 96 % of control | [3] 110 % of control | [4] 100 % of control | [5] 107 % of control | dose: 400.0 mg/kg/injection, schedule: Q01DX009 (ip), vehicle: Klucel (hydroxypropylcellulose) (HPC) 102 % of control | [10] 105 % of control

O=C(O)/C=C/c1nc2ccccc2nc1-c1ccccc1
inactive: dose: 100.0 mg/kg/injection, schedule: Q04DX002 (ip), vehicle: Klucel (hydroxypropylcellulose) (HPC) 101 % of control | dose: 200.0 mg/kg/injection, schedule: Q04DX002 (ip), vehicle: Klucel (hydroxypropylcellulose) (HPC) 113 % of control | dose: 400.0 mg/kg/injection, schedule: Q04DX002 (ip), vehicle: Klucel (hydroxypropylcellulose) (HPC) 101 % of control

O=C1c2ccccc2C(=O)c2c(O)cccc21
inactive: [3] 101 % of control | [5] 89 % of control | [10] 105 % of control

CCOC(=O)C(=N\Nc1ccc(C)cc1C)/C(C)=N\NC(N)=S
inactive: dose: 75.0 mg/kg/injection, schedule: Q01DX001 (ip), vehicle: saline 105 % of control

CCOC(=O)C(c1ccccc1)c1ccccc1
inactive: dose: 100.0 mg/kg/injection, schedule: Q01DX009 (ip), vehicle: other 102 % of control | dose: 200.0 mg/kg/injection, schedule: Q01DX009 (ip), vehicle: other 94 % of control | dose: 400.0 mg/kg/injection, schedule: Q01DX009 (ip), vehicle: other 93 % of control

Fc1c(F)c(F)c(Oc2nc(-c3ccccc3)nc(-c3ccccc3)n2)c(F)c1F
inactive: dose: 25.6 mg/kg/injection, schedule: Q04DX002 (ip), vehicle: saline with Tween-80 92 % of control | dose: 64.0 mg/kg/injection, schedule: Q04DX002 (ip), vehicle: saline with Tween-80 106 % of control | dose: 160.0 mg/kg/injection, schedule: Q04DX002 (ip), vehicle: saline with Tween-80 100 % of control | dose: 400.0 mg/kg/injection, schedule: Q04DX002 (ip), vehicle: saline with Tween-80 95 % of control

Cc1c2ccncc2cc2c3ccccc3n(CC3CO3)c12 (stereo not given)
inactive: dose: 37.5 mg/kg/injection, schedule: Q01DX009 (ip), vehicle: Klucel (hydroxypropylcellulose) (HPC) 96 % of control | dose: 37.5 mg/kg/injection, schedule: Q04DX003 (ip), vehicle: Klucel (hydroxypropylcellulose) (HPC) 104 % of control | dose: 75.0 mg/kg/injection, schedule: Q01DX009 (ip), vehicle: Klucel (hydroxypropylcellulose) (HPC) 96 % of control | dose: 75.0 mg/kg/injection, schedule: Q04DX003 (ip), vehicle: Klucel (hydroxypropylcellulose) (HPC) 106 % of control and 119 % of control | dose: 150.0 mg/kg/injection, schedule: Q01DX009 (ip), vehicle: Klucel (hydroxypropylcellulose) (HPC) 100 % of control | dose: 150.0 mg/kg/injection, schedule: Q04DX003 (ip), vehicle: Klucel (hydroxypropylcellulose) (HPC) 113 % of control | dose: 300.0 mg/kg/injection, schedule: Q01DX009 (ip), vehicle: Klucel (hydroxypropylcellulose) (HPC) 102 % of control

NC(=O)C1CCC(C(N)=O)CC1 (stereo not given)
inactive: [8] 106 % of control | [6] 100 % of control | dose: 100.0 mg/kg/injection, schedule: Q04DX003 (ip), vehicle: saline with Tween-80 100 % of control | dose: 200.0 mg/kg/injection, schedule: Q01DX001 (ip), vehicle: saline with Tween-80 98 % of control | [7] 100 % of control | dose: 200.0 mg/kg/injection, schedule: Q04DX003 (ip), vehicle: saline with Tween-80 115 % of control | [9] 98 % of control | dose: 400.0 mg/kg/injection, schedule: Q01DX009 (ip), vehicle: saline with Tween-80 107 % of control | dose: 400.0 mg/kg/injection, schedule: Q04DX003 (ip), vehicle: saline with Tween-80 102 % of control

CCOC(=O)/C(C#N)=C\c1cccc2ccccc12
inactive: dose: 100.0 mg/kg/injection, schedule: Q01DX001 (ip), vehicle: saline 98 % of control | dose: 100.0 mg/kg/injection, schedule: Q04DX003 (ip), vehicle: other 92 % of control | dose: 200.0 mg/kg/injection, schedule: Q01DX001 (ip), vehicle: saline 103 % of control | dose: 200.0 mg/kg/injection, schedule: Q04DX003 (ip), vehicle: other 92 % of control | dose: 400.0 mg/kg/injection, schedule: Q01DX001 (ip), vehicle: saline 100 % of control | dose: 400.0 mg/kg/injection, schedule: Q04DX003 (ip), vehicle: other 93 % of control

From PubChem BioAssay AID248 (DTP/NCI, 2004)
